# Results reported in US4092315A, “Novel crystalline forms of prazosin hydrochloride” (Pfizer Inc., priority 1976, dated 1978).
# Entries after “also recorded” stand apart in the source; their conditions may differ.
# Tests used:
# Format in all cases: physicochemical
# [1] = Compressed disc (intrinsic) dissolution in water at 37° C.; conditions: slope between 4 and 10 minutes, 150 rpm, hydrochloride
# Procedure: Compressed disc dissolution studies were carried out by means of the procedure developed by Hamlin et al., J. Pharm, Sci., 51, 432(1962). A 300 mg. sample of powder was compressed against a flat surface at 3000 psi. for 2 minutes into a flat round disc using a tablet die of 7/16 inch diameter. The die holding the compressed disc was stoppered at the open end and placed into a plastic holder. This assembly was then placed into a jar containing 1000 ml. of water equilibrated at 37° C. The stirring rate of a teflon paddle centered in the jar was maintained at 150 revolutions per minute. The solution was pumped continuously through a Millipore filter ([…] pore size) into a flow cell of a Beckman Acta II spectrophotometer which automatically recorded any absorbance changes at 246 nm.
# Table VI compares the intrinsic dissolution rates of various forms of prazosin hydrochloride. The rates were determined from the slopes of the compressed disc dissolution profiles between 4 and 10 minutes.
# [2] = Hygroscopicity: water content (Karl Fischer) of samples on exposure to humidity; conditions: for Water Content: 37° C.; for hygroscopicity (in words): compared with the other forms
# Procedure: Since moisture uptake affects integrity of a drug form, the α-, β- and γ- crystalline polymorphs of prazosin hydrochloride were compared for their relative hygroscopicity. Samples of each polymorph were placed in an open beaker and stored in a chamber maintained at 37° C. and 75% relative humidity. Portions were withdrawn periodically and their water content determined by the Karl Fischer method.
# [3] = Conversion to hydrate on contact with water (microscopy, trituration); conditions: drop of water on microscope slide or excess of water, hydrochloride
# Source text: When samples of the α-, β- and γ- polymorphs are triturated with water the resulting product in each case is found to give an infrared spectrum identical to that of the prazosin hydrochloride hydrates.
# The β-form consisted of dark, monoclinic crystals, while the γ-form and polyhydrate are both needle-like crystals.
# This is in agreement with the above mentioned change in the infrared spectra of the α-, β-, γ- polymorphs to that of the hydrates of prazosin hydrochloride upon trituration of each of the crystalline polymorphs with water. Stability Studies
# [4] = Moisture uptake of anhydrate, monohydrate and dihydrate at room temperature, 75% relative humidity
# Procedure: When samples of the anhydrate and monohydrate are stored at room temperature and 75% relative humidity they absorb moisture rapidly to form the dihydrate (8% water) in about 24 hours.
# [5] = Hygroscopicity: water content (Karl Fischer) of samples on exposure to humidity; conditions: room temperature, 20% relative humidity, initially 13.5% water
# [6] = 5 days, 75% R.H., hydrochloride
# [7] = 12 days, 75% R.H., hydrochloride
# [8] = 25 days, 75% R.H., hydrochloride
# [9] = 34 days, 75% R.H., hydrochloride
compound,measurement,setting,value
"COc1cc2nc(N3CCN(C(=O)c4ccco4)CC3)nc(N)c2cc1OC.Cl [γ-form, 2-[4-(2-furoyl)piperazin-1-yl]-4-amino-6,7-dimethoxyquinazoline hydrochloride]",Intrinsic Dissolution Rate,[1]; listed as γ-,2.35 μg/liter sec.
same,Water Content,[2]; [6],0.16 % by Weight
same,Water Content,[2]; [7],4.61 % by Weight
same,Water Content,[2]; [8],9.47 % by Weight
same,Water Content,[2]; [9],9.05 % by Weight
same,hygroscopicity (in words),[2]; hydrochloride,more hygroscopic then the β-form
same,change of form on exposure to moisture (in words),[2]; infrared spectrum (KBr) after exposure to moisture,formation of a hydrate
same,conversion to hydrate on contact with water (in words),[3]; listed as γ-forms,sharp needle-like crystals of hydrate grew
"COc1cc2nc(N3CCN(C(=O)c4ccco4)CC3)nc(N)c2cc1OC.Cl [α-form, 2-[4-(2-furoyl)piperazin-1-yl]-4-amino-6,7-dimethoxyquinazoline hydrochloride]",Intrinsic Dissolution Rate,[1]; listed as α-,3.25 μg/liter sec.
same,Water Content,[2]; [6],0.32 % by Weight
same,Water Content,[2]; [7],0.85 % by Weight
same,Water Content,[2]; [8],1.18 % by Weight
same,Water Content,[2]; [9],1.54 % by Weight
same,hygroscopicity (in words),[2]; hydrochloride,relatively non-hydroscopic when compared with the β- and γ-forms; also recorded: non-hygroscopic
same,conversion to hydrate on contact with water (in words),[3],converted to the polyhydrate
same,conversion to hydrate on contact with water (in words),[3]; listed as α-,sharp needle-like crystals of hydrate grew
"COc1cc2nc(N3CCN(C(=O)c4ccco4)CC3)nc(N)c2cc1OC.Cl [β-form, 2-[4-(2-furoyl)piperazin-1-yl]-4-amino-6,7-dimethoxyquinazoline hydrochloride]",Intrinsic Dissolution Rate,[1]; listed as β-,3.36 μg/liter sec.
same,Water Content,[2]; [6],0.59 % by Weight
same,Water Content,[2]; [7],1.18 % by Weight
same,Water Content,[2]; [8],4.66 % by Weight
same,Water Content,[2]; [9],6.06 % by Weight
same,hygroscopicity (in words),[2]; hydrochloride,hygroscopic
same,conversion to hydrate on contact with water (in words),[3]; listed as β-,sharp needle-like crystals of hydrate grew
"COc1cc2nc(N3CCN(C(=O)c4ccco4)CC3)nc(N)c2cc1OC.Cl [monohydrate, 2-[4-(2-furoyl)piperazin-1-yl]-4-amino-6,7-dimethoxyquinazoline hydrochloride]",reversion upon exposure to moist air (in words),[4]; exposure to moist air,revert to polyhydrate
"COc1cc2nc(N3CCN(C(=O)c4ccco4)CC3)nc(N)c2cc1OC.Cl [methanolate, 2-[4-(2-furoyl)piperazin-1-yl]-4-amino-6,7-dimethoxyquinazoline hydrochloride]",Intrinsic Dissolution Rate,[1]; listed as Methanolate,2.68 μg/liter sec.
"COc1cc2nc(N3CCN(C(=O)c4ccco4)CC3)nc(N)c2cc1OC.Cl [polyhydrate, 2-[4-(2-furoyl)piperazin-1-yl]-4-amino-6,7-dimethoxyquinazoline hydrochloride]",Water Content,[5]; 18 days,13.0%
same,Water Content,[5]; 35 days,13.1%
same,Intrinsic Dissolution Rate,[1]; listed as Polyhydrate,2.57 μg/liter sec.
same,Water Content,"[2]; 10 days, 75% relative humidity, initially 13.7% water",13.2%
same,Water Content,"[2]; 23 days, 75% relative humidity, initially 13.7% water",13.4%
same,moisture,[2]; other samples exposed to high humidity,up to 15%
"COc1cc2nc(N3CCN(C(=O)c4ccco4)CC3)nc(N)c2cc1OC.Cl [dihydrate, 2-[4-(2-furoyl)piperazin-1-yl]-4-amino-6,7-dimethoxyquinazoline hydrochloride]",equilibrium water content,"[4]; after 4 days, room temperature, 75% relative humidity",13.5%
"COc1cc2nc(N3CCN(C(=O)c4ccco4)CC3)nc(N)c2cc1OC.Cl [anhydrate, 2-[4-(2-furoyl)piperazin-1-yl]-4-amino-6,7-dimethoxyquinazoline hydrochloride]",water content on storage (dihydrate formed),"[4]; about 24 hours, room temperature, 75% relative humidity",8%
same,time to form the dihydrate,"[4]; room temperature, 75% relative humidity",about 24 hours
same,Intrinsic Dissolution Rate,[1]; listed as Anhydrate,2.35 μg/liter sec.
